Laboratory results: patent US20220323406A1, “METHODS AND COMPOSITIONS FOR DIFFERENTIATING STEM CELLS” (Massachusetts Institute of Technology, priority 2019, published 2022)

How the values were obtained:
[1] = tested on: ENR+CD organoids (ISC to Paneth cell differentiation); assay: Primary screen: basal (non-stimulated) lysozyme secretion LYZ.NS, 2.5-D 384-well ENR+CD organoid differentiation; assay type: cell-based, mouse
Source text: (§1) High-throughput screening.

ENR+CD organoids = assay: Primary screen: ATP (CellTiter-Glo 3D, CTG) cell number/viability, 2.5-D 384-well ENR+CD organoids;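 also: compounds given at plating and again on day 3 over a 6-day differentiation from ENR+CV stem-cell-enriched precursors, ATP measured on day 6, plate median as control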
[2] = tested on: ENR+CD organoids (ISC to Paneth cell differentiation); assay: Primary screen: CCh-stimulated lysozyme secretion LYZ.S, 2.5-D 384-well ENR+CD organoid differentiation; assay type: cell-based, mouse; conditions: primary screen
Source text: as §1

[3] = primary screen, dose 0.08 uM, standard z score
[4] = primary screen, dose 0.40 uM, standard z score
[5] = primary screen, dose 2.00 uM, standard z score
[6] = primary screen, dose 10.00 uM, standard z score
[7] = primary screen; dose 0.08 uM; FC vs plate median
[8] = primary screen; dose 0.40 uM; FC vs plate median
[9] = primary screen; dose 2.00 uM; FC vs plate median
[10] = primary screen; dose 10.00 uM; FC vs plate median
[11] = dose 0.08 uM, FC vs plate median
[12] = dose 0.40 uM, FC vs plate median
[13] = dose 2.00 uM, FC vs plate median
[14] = dose 10.00 uM, FC vs plate median
[15] = primary screen, standard z score, dose 0.08 uM
[16] = primary screen, standard z score, dose 0.40 uM
[17] = primary screen, standard z score, dose 2.00 uM
[18] = primary screen, standard z score, dose 10.00 uM

C=CCn1c(=O)c2cnc(Nc3ccc(N4CCN(C)CC4)cc3)nc2n1-c1cccc(C(C)(C)O)n1 [MK-1775]
Z.LYZ.NS [1, 3]: 0.334 | Z.LYZ.NS [1, 4]: −1.331 | Z.LYZ.NS [1, 5]: −1.869 | Z.LYZ.NS [1, 6]: −1.574 | Dose.FC.LYZ.NS [1, 7]: 0.038 log2 fold change | Dose.FC.LYZ.NS [1, 8]: −0.153 log2 fold change | Dose.FC.LYZ.NS [1, 9]: −0.215 log2 fold change | Dose.FC.LYZ.NS [1, 10]: −0.181 log2 fold change | Dose.FC.CTG (ENR+CD organoids; [7]): 0.165 log2 fold change | Dose.FC.CTG (ENR+CD organoids; [8]): −0.450 log2 fold change | Dose.FC.CTG (ENR+CD organoids; [9]): −0.804 log2 fold change | Dose.FC.CTG (ENR+CD organoids; [10]): −1.026 log2 fold change | Dose.FC.LYZ.S [2, 11]: 0.066 log2 fold change | Dose.FC.LYZ.S [2, 12]: −0.217 log2 fold change | Dose.FC.LYZ.S [2, 13]: −0.208 log2 fold change | Dose.FC.LYZ.S [2, 14]: −0.254 log2 fold change

CCCC(C)NC(=O)c1ccc(Cl)c(Cl)c1 (centres unmarked) [NSC 405020]
Z.LYZ.NS [1, 3]: 0.071 | Z.LYZ.NS [1, 4]: −0.246 | Z.LYZ.NS [1, 5]: 0.160 | Z.LYZ.NS [1, 6]: −0.570 | Dose.FC.LYZ.NS [1, 7]: 0.008 log2 fold change | Dose.FC.LYZ.NS [1, 8]: −0.028 log2 fold change | Dose.FC.LYZ.NS [1, 9]: 0.018 log2 fold change | Dose.FC.LYZ.NS [1, 10]: −0.065 log2 fold change | Z.CTG (ENR+CD organoids; [3]): −0.140 | Z.CTG (ENR+CD organoids; [4]): −0.170 | Z.CTG (ENR+CD organoids; [5]): −0.141 | Z.CTG (ENR+CD organoids; [6]): −0.138 | Dose.FC.CTG (ENR+CD organoids; [7]): −0.059 log2 fold change | Dose.FC.CTG (ENR+CD organoids; [8]): −0.071 log2 fold change | Dose.FC.CTG (ENR+CD organoids; [9]): −0.059 log2 fold change | Dose.FC.CTG (ENR+CD organoids; [10]): −0.058 log2 fold change | Dose.FC.LYZ.S [2, 11]: 0.014 log2 fold change | Dose.FC.LYZ.S [2, 12]: 0.093 log2 fold change | Dose.FC.LYZ.S [2, 13]: 0.002 log2 fold change | Dose.FC.LYZ.S [2, 14]: −0.061 log2 fold change

CCOC(=O)C1=C(C)NC(C)=C(C(=O)OC)C1c1cccc(Cl)c1Cl (centres unmarked) [Felodipine]
Dose.FC.LYZ.NS ([1]; primary screen, dose 0.08 uM): 0.001 log2 fold change | Dose.FC.LYZ.NS ([1]; primary screen, dose 0.40 uM): −0.033 log2 fold change | Dose.FC.LYZ.NS ([1]; primary screen, dose 2.00 uM): 0.002 log2 fold change | Dose.FC.LYZ.NS ([1]; primary screen, dose 10.00 uM): −0.056 log2 fold change | Z.LYZ.NS [1, 15]: 0.010 | Z.LYZ.NS [1, 16]: −0.284 | Z.LYZ.NS [1, 17]: 0.017 | Z.LYZ.NS [1, 18]: −0.487 | Dose.FC.CTG (ENR+CD organoids; primary screen, dose 0.08 uM): −0.078 log2 fold change | Dose.FC.CTG (ENR+CD organoids; primary screen, dose 0.40 uM): −0.319 log2 fold change | Dose.FC.CTG (ENR+CD organoids; primary screen, dose 2.00 uM): 0.011 log2 fold change | Dose.FC.CTG (ENR+CD organoids; primary screen, dose 10.00 uM): 0.032 log2 fold change | Dose.FC.LYZ.S ([2]; dose 0.08 uM): 0.008 log2 fold change | Dose.FC.LYZ.S ([2]; dose 0.40 uM): −0.042 log2 fold change | Dose.FC.LYZ.S ([2]; dose 2.00 uM): −0.003 log2 fold change | Dose.FC.LYZ.S ([2]; dose 10.00 uM): −0.067 log2 fold change

Cn1cc(C2=C(c3cn(C4CCN(Cc5ccccn5)CC4)c4ccccc34)C(=O)NC2=O)c2ccccc21 [Enzastaurin (LY317615)]
Dose.FC.LYZ.NS ([1]; primary screen, dose 0.08 uM): 0.085 log2 fold change | Dose.FC.LYZ.NS ([1]; primary screen, dose 0.40 uM): 0.131 log2 fold change | Dose.FC.LYZ.NS ([1]; primary screen, dose 2.00 uM): 0.053 log2 fold change | Dose.FC.LYZ.NS ([1]; primary screen, dose 10.00 uM): −0.116 log2 fold change | Z.LYZ.NS [1, 15]: 0.744 | Z.LYZ.NS [1, 16]: 1.143 | Z.LYZ.NS [1, 17]: 0.458 | Z.LYZ.NS [1, 18]: −1.012 | Dose.FC.CTG (ENR+CD organoids; primary screen, dose 0.08 uM): 0.236 log2 fold change | Dose.FC.CTG (ENR+CD organoids; primary screen, dose 0.40 uM): 0.475 log2 fold change | Dose.FC.CTG (ENR+CD organoids; primary screen, dose 2.00 uM): 0.251 log2 fold change | Dose.FC.CTG (ENR+CD organoids; primary screen, dose 10.00 uM): −0.081 log2 fold change | Z.CTG (ENR+CD organoids; [15]): 0.565 | Z.CTG (ENR+CD organoids; [16]): 1.135 | Z.CTG (ENR+CD organoids; [17]): 0.600 | Z.CTG (ENR+CD organoids; [18]): −0.194 | Dose.FC.LYZ.S ([2]; dose 0.08 uM): 0.109 log2 fold change | Dose.FC.LYZ.S ([2]; dose 0.40 uM): 0.251 log2 fold change | Dose.FC.LYZ.S ([2]; dose 2.00 uM): 0.053 log2 fold change | Dose.FC.LYZ.S ([2]; dose 10.00 uM): −0.226 log2 fold change

I-BET151 (GSK1210151A)
Dose.FC.LYZ.NS (log2 fold change) ([1]; primary screen, dose 0.08 uM): −0.116 | Z.LYZ.NS (standard z score) ([1]; primary screen, dose 0.08 uM): −1.010 | Dose.FC.LYZ.NS (log2 fold change) ([1]; primary screen, dose 0.40 uM): −0.248 | Z.LYZ.NS (standard z score) ([1]; primary screen, dose 0.40 uM): −2.159 | Dose.FC.LYZ.NS (log2 fold change) ([1]; primary screen, dose 2.00 uM): −0.299 | Z.LYZ.NS (standard z score) ([1]; primary screen, dose 2.00 uM): −2.601 | Dose.FC.LYZ.NS (log2 fold change) ([1]; primary screen, dose 10.00 uM): −0.284 | Z.LYZ.NS (standard z score) ([1]; primary screen, dose 10.00 uM): −2.473 | Dose.FC.CTG (log2 fold change) (ENR+CD organoids; primary screen, dose 0.08 uM): −0.016 | Z.CTG (standard z score) (ENR+CD organoids; primary screen, dose 0.08 uM): −0.039 | Dose.FC.CTG (log2 fold change) (ENR+CD organoids; primary screen, dose 0.40 uM): −0.174 | Z.CTG (standard z score) (ENR+CD organoids; primary screen, dose 0.40 uM): −0.415 | Dose.FC.CTG (log2 fold change) (ENR+CD organoids; primary screen, dose 2.00 uM): −0.502 | Z.CTG (standard z score) (ENR+CD organoids; primary screen, dose 2.00 uM): −1.200 | Dose.FC.CTG (log2 fold change) (ENR+CD organoids; primary screen, dose 10.00 uM): −0.935 | Z.CTG (standard z score) (ENR+CD organoids; primary screen, dose 10.00 uM): −2.233 | Dose.FC.LYZ.S (log2 fold change) ([2]; dose 0.08 uM): −0.242 | Dose.FC.LYZ.S (log2 fold change) ([2]; dose 0.40 uM): −0.344 | Dose.FC.LYZ.S (log2 fold change) ([2]; dose 2.00 uM): −0.416 | Dose.FC.LYZ.S (log2 fold change) ([2]; dose 10.00 uM): −0.408
